This test concerns human JAK1. Nature of the test: In vitro JAK kinase assay (HTRF), JAK1. Format: biochemical. The note with it: ratio of JAK2 IC50 to JAK1 IC50 at 1 mM ATP. Here is the method: Compounds herein were tested for inhibitory activity of JAK targets according to the following in vitro assay described in Park et al., Analytical Biochemistry 1999, 269, 94-104. The catalytic domains of human JAK1 (a.a. 837-1142), JAK2 (a.a. 828-1132) and JAK3 (a.a. 781-1124) were expressed using baculovirus in insect cells and purified. The catalytic activity of JAK1, JAK2 or JAK3 was assayed by measuring the phosphorylation of a biotinylated peptide. The phosphorylated peptide was detected by homogenous time resolved fluorescence (HTRF). IC50s of compounds were measured for each kinase in the 40 μL reactions that contain the enzyme, ATP and 500 nM peptide in 50 mM Tris (pH 7.8) buffer with 100 mM NaCl, 5 mM DTT, and 0.1 mg/mL (0.01%) BSA. For the 1 mM IC50 measurements, ATP concentration in the reactions was 1 mM. Reactions were carried out at room temperature for 1 hour and then stopped with 20 μL 45 mM EDTA, 300 nM SA-APC, 6 nM Eu-Py20 in assay buffer (Perkin Elmer, Boston, Mass.). Binding to the Europium labeled antibody took place for 40 minutes and HTRF signal was measured on a PHERA star plate reader (BMG, Cary, N.C.). The Example compounds were each tested in the Example A assay (see Table 1 for data for the compounds of the examples as tested by the assay of Example A at 1 mM ATP).
On the technique in general: TR-FRET usually uses a lanthanide donor and a delayed reading to cut background.

Bounds are passed on as bounds.

Turning to `Cc1nc2cnc3ccsc3c2n1[C@H]1CC[C@H](CC#N)OC1` [Example 38, [(2R,5S)-5-(2-Methyl-1H-imidazo[4,5-d]thieno[3,2-b]pyridin-1-yl)tetrahydro-2H-pyran-2-yl]acetonitrile], the JAK2/JAK1 is more than 10. Regarding `C[C@@H](O)c1nc2cnc3ccsc3c2n1[C@H]1CCCOC1` [Example 1, (1R)-1-{1-[(3S)-Tetrahydro-2H-pyran-3-yl]-1H-imidazo[4,5-d]thieno[3,2-b]pyridin-2-yl}ethanol], the JAK2/JAK1 is reported as more than 3.

On to `C[C@@H](O)c1nc2cnc3ccsc3c2n1[C@H]1CC[C@H](NCC(F)(F)F)CC1` [Example 4, (1R)-1-(1-{trans-4-[(2,2,2-Trifluoroethyl)amino]cyclohexyl}-1H-imidazo[4,5-d]thieno[3,2-b]pyridin-2-yl)ethanol], for which the JAK2/JAK1 is recorded as more than 10.

Take `C[C@@H](O)c1nc2cnc3ccsc3c2n1[C@H]1CC[C@H](CC#N)OC1` [Example 20, ((2R,5S)-5-{2-[(1R)-1-Hydroxyethyl]-1H-imidazo[4,5-d]thieno[3,2-b]pyridin-1-yl}tetrahydro-2H-pyran-2-yl)acetonitrile]: the JAK2/JAK1 is more than 10.

With `N#CC[C@H]1CC[C@H](n2c(C3CNC3)nc3cnc4ccsc4c32)CC1` [Example 28, [trans-4-(2-Azetidin-3-yl-1H-imidazo[4,5-d]thieno[3,2-b]pyridin-1-yl)cyclohexyl]acetonitrile], the JAK2/JAK1 is more than 7.

Consider `C[C@@H](O)c1nc2cnc3ccsc3c2n1[C@H]1CCCN(C(=O)CCC(F)(F)F)C1` [Example 52, (1R)-1-{1-[(3S)-1-(4,4,4-Trifluorobutanoyl)piperidin-3-yl]-1H-imidazo[4,5-d]thieno[3,2-b]pyridin-2-yl}ethanol], for which the JAK2/JAK1 was more than 10.

Consider `Cc1nc2cnc3ccsc3c2n1[C@H]1CC[C@H](CC#N)CC1` [Example 48, [trans-4-(2-Methyl-1H-imidazo[4,5-d]thieno[3,2-b]pyridin-1-yl)cyclohexyl]acetonitrile], for which the JAK2/JAK1 is recorded as more than 7. As for `C[C@@H](O)c1nc2cnc3ccsc3c2n1[C@H]1CCN(CCCC#N)C1` [Example 65, 4-((3S)-3-{2-[(1R)-1-Hydroxyethyl]-1H-imidazo[4,5-d]thieno[3,2-b]pyridin-1-yl}pyrrolidin-1-yl)butanenitrile], the figure is more than 10; as for `CN1CC(c2nc3cnc4ccsc4c3n2[C@H]2CC[C@H](CC#N)CC2)C1` [Example 29, {trans-4-[2-(1-Methylazetidin-3-yl)-1H-imidazo[4,5-d]thieno[3,2-b]pyridin-1-yl]cyclohexyl}acetonitrile], more than 9.

Turning to `COC(=O)NC[C@H]1CC[C@H](n2c(CC#N)nc3cnc4ccsc4c32)CC1` [Example 86, Methyl({trans-4-[2-(cyanomethyl)-1H-imidazo[4,5-d]thieno[3,2-b]pyridin-1-yl]cyclohexyl}methyl)carbamate], the JAK2/JAK1 is given as more than 10. On to `C[C@@H](O)c1nc2cnc3ccsc3c2n1[C@H]1CC[C@H](CC#N)CC1.Cl` [Example 10, (trans-4-{2-[(1R)-1-Hydroxyethyl]-1H-imidazo[4,5-d]thieno[3,2-b]pyridin-1-yl}cyclohexyl)acetonitrile HCl salt], for which the JAK2/JAK1 is more than 10. In the case of `N#CCc1nc2cnc3ccsc3c2n1[C@H]1CC[C@H](CC#N)CC1` [Example 90, {1-[trans-4-(Cyanomethyl)cyclohexyl]-1H-imidazo[4,5-d]thieno[3,2-b]pyridin-2-yl}acetonitrile], the JAK2/JAK1 is reported as more than 10.

As to `CCCOC(=O)NC[C@H]1CC[C@H](n2c([C@@H](C)O)nc3cnc4ccsc4c32)CC1` [Example 83, Propyl [(trans-4-{2-[(1R)-1-hydroxyethyl]-1H-imidazo[4,5-d]thieno[3,2-b]pyridin-1-yl}cyclohexyl)methyl]carbamate], the JAK2/JAK1 is given as more than 10. The value for `CC(=O)NC(C)c1nc2cnc3ccsc3c2n1[C@H]1CC[C@H](CC#N)OC1` (stereo partly drawn) [Example 69, N-(1-{1-[(3S,6R)-6-(Cyanomethyl)tetrahydro-2H-pyran-3-yl]-1H-imidazo[4,5-d]thieno[3,2-b]pyridin-2-yl}ethyl)acetamide] was more than 10; that for `Cc1nc2cnc3ccsc3n2c1-c1ccc(CC#N)cc1` [Example 33, [4-(7-Methylimidazo[1,2-a]thieno[3,2-e]pyrazin-8-yl)phenyl]acetonitrile] was more than 7. As for `C[C@@H](O)c1nc2cnc3ccsc3c2n1[C@H]1CC[C@H](CC#N)[C@H](N)C1` [Example 67, ((1R,2R,4S)-2-Amino-4-{2-[(1R)-1-hydroxyethyl]-1H-imidazo[4,5-d]thieno[3,2-b]pyridin-1-yl}cyclohexyl)acetonitrile], the figure is more than 10; as for `CNC(C)c1nc2cnc3ccsc3c2n1[C@H]1CC[C@H](CC#N)OC1` (stereo partly drawn) [Example 70, ((2R,5S)-5-{2-[1-(Methylamino)ethyl]-1H-imidazo[4,5-d]thieno[3,2-b]pyridin-1-yl}tetrahydro-2H-pyran-2-yl)acetonitrile], more than 10. On to `C[C@@H](O)c1nc2cnc3ccsc3c2n1[C@@H]1CC[C@@H](CC#N)OC1` [Example 44, ((2S,5R)-5-{2-[(1R)-1-Hydroxyethyl]-1H-imidazo[4,5-d]thieno[3,2-b]pyridin-1-yl}tetrahydro-2H-pyran-2-yl)acetonitrile], for which the JAK2/JAK1 was more than 10. The value for `CS(=O)(=O)NCc1nc2cnc3ccsc3c2n1[C@H]1CC2CCC1C2` (stereo partly drawn) [Example 22, N-((1-((2S)-Bicyclo[2.2.1]heptan-2-yl)-1H-imidazo[4,5-d]thieno[3,2-b]pyridin-2-yl)methyl)methanesulfonamide] was more than 4. As for `C[C@@H](O)c1nc2cnc3ccsc3c2n1[C@H]1CC[C@@H](CC#N)C1.O=C(O)C(F)(F)F` [Example 49, ((1R,3S)-3-{2-[(1R)-1-Hydroxyethyl]-1H-imidazo[4,5-d]thieno[3,2-b]pyridin-1-yl}cyclopentyl)acetonitrile trifluoroacetate], the figure is more than 10. The value for `CCc1nc2cnc3ccsc3c2n1[C@@H]1CC[C@@H](CC#N)[C@@H](O)C1` (mixture of isomers) [Example 35] was more than 10; that for `N#CCc1nc2cnc3ccsc3c2n1[C@H]1CC[C@H](CC#N)OC1` [Example 73, {(2R,5S)-5-[2-(Cyanomethyl)-1H-imidazo[4,5-d]thieno[3,2-b]pyridin-1-yl]tetrahydro-2H-pyran-2-yl}acetonitrile] was more than 10; that for `C[C@@H](O)c1nc2cnc3ccsc3c2n1[C@H]1CC[C@H](CNS(C)(=O)=O)OC1` [Example 75, N-[((2R,5S)-5-{2-[(1R)-1-Hydroxyethyl]-1H-imidazo[4,5-d]thieno[3,2-b]pyridin-1-yl}tetrahydro-2H-pyran-2-yl)methyl]methanesulfonamide] was more than 10.

As for `C[C@@H](O)c1nc2cnc3ccsc3c2n1[C@H]1CCN(CCC#N)C1` [Example 62, 3-((3S)-3-{2-[(1R)-1-Hydroxyethyl]-1H-imidazo[4,5-d]thieno[3,2-b]pyridin-1-yl}pyrrolidin-1-yl)propanenitrile], the JAK2/JAK1 was more than 10. The value for “((1R,2R,4S)-2-Hydroxy-4-{2-[(1R)-1-hydroxyethyl]-1H-imidazo[4,5-d]thieno[3,2-b]pyridin-1-yl}cyclohexyl)acetonitrile and ((1S,2S,4R)-2-hydroxy-4-{2-[(1R)-1-hydroxyethyl]-1H-imidazo[4,5-d]thieno[3,2-b]pyridin-1-yl}cyclohexyl)acetonitrile [36 (first peak)]” was more than 10. The value for `C[C@@H](O)c1nc2cnc3ccsc3c2n1[C@H]1CC[C@@H](C#N)CC1` [Example 7, cis-4-{2-[(1R)-1-Hydroxyethyl]-1H-imidazo[4,5-d]thieno[3,2-b]pyridin-1-yl}cyclohexanecarbonitrile] was more than 10; that for `C[C@@H](O)c1nc2cnc3ccsc3c2n1[C@H]1CCN(C(=O)CC#N)C1` [Example 63, 3-((3S)-3-{2-[(1R)-1-Hydroxyethyl]-1H-imidazo[4,5-d]thieno[3,2-b]pyridin-1-yl}pyrrolidin-1-yl)-3-oxopropanenitrile] was more than 6. With `C[C@@H](O)c1nc2cnc3ccsc3c2n1C1CCCC(CCC#N)C1` (stereo partly drawn) [Example 32, 3-(3-{2-[(1R)-1-Hydroxyethyl]-1H-imidazo[4,5-d]thieno[3,2-b]pyridin-1-yl}cyclohexyl)propanenitrile], the JAK2/JAK1 was more than 10. As for `N#CCc1nc2cnc3ccsc3c2n1[C@H]1CC[C@@H](CC#N)OC1` [Example 74, {(2S,5S)-5-[2-(Cyanomethyl)-1H-imidazo[4,5-d]thieno[3,2-b]pyridin-1-yl]tetrahydro-2H-pyran-2-yl}acetonitrile], the figure is more than 10.

For the molecule `N#CC[C@H]1CC[C@H](n2/c(=N/C#N)[nH]c3cnc4ccsc4c32)CC1.O=C(O)C(F)(F)F` [Example 25, {(2E)-1-[trans-4-(Cyanomethyl)cyclohexyl]-1,3-dihydro-2H-imidazo[4,5-d]thieno[3,2-b]pyridin-2-ylidene}cyanamide trifluoroacetate], the JAK2/JAK1 is given as more than 6. With `CNS(=O)(=O)C[C@H]1CC[C@H](n2c([C@@H](C)O)nc3cnc4ccsc4c32)CC1` [Example 14, 1-(trans-4-{2-[(1R)-1-hydroxyethyl]-1H-imidazo[4,5-d]thieno[3,2-b]pyridin-1-yl}cyclohexyl)-N-methylmethanesulfonamide], the JAK2/JAK1 is listed as more than 5.

The values above are taken from patent US9908895B2, “Tricyclic fused thiophene derivatives as JAK inhibitors” (Incyte Corporation, priority 2012, dated 2018).
